The target in assay [1] is intracellular GCN2 (phosphorylation of the GCN2 substrate eIF2α) (Homo sapiens, UniProt Q9P2K8). In words: GCN2 cellular inhibition assay (AlphaScreen SureFire P-eIF2α Ser51, borrelidin-treated U2OS cells). It counts as cell-based. The gist of the method: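 U2OS cells, adhered overnight, received compounds in 4-fold serial dilutions from 40 μM final, then 10 μM borrelidin for 1 h at 37 °C. Lysates were read by AlphaScreen for phospho-eIF2α Ser51; percent inhibition was set against borrelidin-only wells.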
Sequence of intracellular GCN2 (phosphorylation of the GCN2 substrate eIF2α) (Q9P2K8 whole entry): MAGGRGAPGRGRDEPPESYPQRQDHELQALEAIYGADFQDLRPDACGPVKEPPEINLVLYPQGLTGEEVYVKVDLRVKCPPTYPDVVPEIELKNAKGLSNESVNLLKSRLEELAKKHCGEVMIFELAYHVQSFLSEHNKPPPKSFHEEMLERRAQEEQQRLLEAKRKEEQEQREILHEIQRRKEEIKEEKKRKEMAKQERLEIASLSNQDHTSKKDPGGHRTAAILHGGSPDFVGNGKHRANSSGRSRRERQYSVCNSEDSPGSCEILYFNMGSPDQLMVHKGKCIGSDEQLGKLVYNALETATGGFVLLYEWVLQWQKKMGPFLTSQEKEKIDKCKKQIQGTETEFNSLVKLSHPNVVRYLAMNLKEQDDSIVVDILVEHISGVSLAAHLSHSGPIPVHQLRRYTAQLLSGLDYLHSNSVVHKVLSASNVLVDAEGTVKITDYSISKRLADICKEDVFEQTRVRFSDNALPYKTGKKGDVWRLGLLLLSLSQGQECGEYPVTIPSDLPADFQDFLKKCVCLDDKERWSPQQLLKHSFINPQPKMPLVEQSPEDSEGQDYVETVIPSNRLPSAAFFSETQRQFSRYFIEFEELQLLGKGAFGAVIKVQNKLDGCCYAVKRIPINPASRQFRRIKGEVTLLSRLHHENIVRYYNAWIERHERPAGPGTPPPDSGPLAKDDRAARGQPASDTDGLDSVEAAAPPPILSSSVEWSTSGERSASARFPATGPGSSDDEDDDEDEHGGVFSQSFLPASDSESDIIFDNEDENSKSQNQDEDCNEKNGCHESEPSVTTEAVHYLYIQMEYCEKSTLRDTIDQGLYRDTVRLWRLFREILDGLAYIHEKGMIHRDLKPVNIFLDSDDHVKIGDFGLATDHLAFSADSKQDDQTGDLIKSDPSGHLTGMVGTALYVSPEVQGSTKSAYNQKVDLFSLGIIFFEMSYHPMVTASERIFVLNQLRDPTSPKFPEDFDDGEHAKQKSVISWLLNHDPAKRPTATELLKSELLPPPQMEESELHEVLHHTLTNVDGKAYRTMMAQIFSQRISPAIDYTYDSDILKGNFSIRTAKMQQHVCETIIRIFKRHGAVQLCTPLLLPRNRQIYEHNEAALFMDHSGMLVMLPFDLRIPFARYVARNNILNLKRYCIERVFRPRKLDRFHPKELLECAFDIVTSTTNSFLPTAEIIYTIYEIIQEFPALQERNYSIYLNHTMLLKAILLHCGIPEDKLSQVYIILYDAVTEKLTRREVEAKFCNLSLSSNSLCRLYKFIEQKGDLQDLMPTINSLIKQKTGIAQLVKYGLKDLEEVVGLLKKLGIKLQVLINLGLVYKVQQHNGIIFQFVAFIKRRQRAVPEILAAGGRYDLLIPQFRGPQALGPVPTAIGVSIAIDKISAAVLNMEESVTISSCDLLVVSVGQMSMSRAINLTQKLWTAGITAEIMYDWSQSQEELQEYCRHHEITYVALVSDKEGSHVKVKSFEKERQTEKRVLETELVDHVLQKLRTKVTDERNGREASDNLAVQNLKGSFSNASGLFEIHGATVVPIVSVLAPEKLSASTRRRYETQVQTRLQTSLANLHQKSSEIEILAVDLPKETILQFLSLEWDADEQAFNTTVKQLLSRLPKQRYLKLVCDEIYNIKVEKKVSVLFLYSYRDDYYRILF
(In general: Bead proximity is the source of the signal in Alpha formats.)

The target in a further assay is GCN2 kinase (Homo sapiens, UniProt Q9P2K8). In words: GCN2 enzyme inhibition assay (Transcreener ADP2 fluorescence polarization). In kind it is biochemical. The settings on record: 280 μM ATP. The gist of the method: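 Human GCN2 (4 nM) preincubated 10 min with compound (0–8 μM) and 200 μM (RS)7 peptide in Tris-HCl pH 7.5, NaCl, MgCl2, DTT. Reaction started with 280 μM ATP, run 1 h at 25 °C. ADP detected by Transcreener fluorescence polarization. IC50 and Ki(app) fitted by tight-binding algorithm.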
Sequence of GCN2 kinase (Q9P2K8 whole entry): as above

The mark [2] stands for this setting: compounds of Formula IV, biomarker assay, phosphorylated eIF2α Ser51 in borrelidin-treated U2OS cells.
Where [3] appears, read: Enzyme activity for compounds of Formula IV, Ki(app), 25° C.
[4] abbreviates: compounds of Formula II, biomarker assay, phosphorylated eIF2α Ser51 in borrelidin-treated U2OS cells.
Setting [5] is: compounds of Formula II, 4 nM GCN2 kinase.
Where [6] appears, read: compounds of Formula III, U2OS cells, 10 μM borrelidin, 1 h, read-out: GCN2 Biomarker (IC50).
Where [7] appears, read: compounds of Formula III, 4 nM GCN2 kinase.

Where two headings read alike, the source gives them in different places.

For `NC1CCCN(c2ccnc(-c3cnc4cnc(C(F)F)cn34)n2)CC1` (stereo not shown) [IV-118, 1-(2-(6-(Difluoromethyl)imidazo[1,2-a]pyrazin-3-yl)pyrimidin-4-yl)azepan-4-amine], the IC50 (as a rule, the point on the concentration scale where inhibition reaches its midpoint) in assay [1] (setting [2]) is > 5000 nM. The Ki on GCN2 kinase (setting [3]) is 100 to 1000 nM.

Take `CN1CCN(c2cc(-c3cnc4ccc(C(F)F)nn34)ccn2)CC1CO` (stereo not shown) [II-97, (4-(4-(6-(Difluoromethyl)imidazo[1,2-b]pyridazin-3-yl)pyridin-2-yl)-1-methylpiperazin-2-yl)methanol]: the concentration for half-maximal inhibition (IC50) in assay [1] (setting [4]) was > 5000 nM. On GCN2 kinase (setting [5]), this molecule returned a Ki of 10 to 1000 nM.

In turn, `FC(F)(F)c1cn2c(-c3nccc(N4CCCC(c5cn[nH]c5)C4)n3)cnc2cn1` (single isomer, unassigned) [IV-545, 3-(4-(3-(1H-Pyrazol-4-yl)piperidin-1-yl)pyrimidin-2-yl)-6-(trifluoromethyl)imidazo[1,2-a]pyrazine] yielded an IC50 in assay [1] (setting [2]) of 500 to 5000 nM. Also, the Ki at GCN2 kinase (setting [3]) was < 10 nM.

As to `CC1CN(c2ncc(F)c(-c3cnc4cnc(C(F)(F)F)cn34)n2)C(C)C(c2cn[nH]c2)N1` (stereo not shown) [IV-421, 3-(2-(2,5-Dimethyl-3-(1H-pyrazol-4-yl)piperazin-1-yl)-5-fluoropyrimidin-4-yl)-6-(trifluoromethyl)imidazo[1,2-a]pyrazine], in assay [1] (setting [2]), the half-inhibitory concentration (IC50) lay in the range of 500 to 5000 nM. Besides, at GCN2 kinase (setting [3]), the Ki was 10 to 100 nM.

`CN1CCN(c2cc(-c3cnc4ccc(C(F)F)nn34)ncn2)CC12CN(S(C)(=O)=O)C2` [II-452, 8-(6-(6-(Difluoromethyl)imidazo[1,2-b]pyridazin-3-yl)pyrimidin-4-yl)-5-methyl-2-(methylsulfonyl)-2,5,8-triazaspiro[3.5]nonane] had an IC50 in assay [1] (setting [4]) of 500 to 5000 nM. Further, the Ki at GCN2 kinase (setting [5]) lay in the range of 10 to 1000 nM.

As to `CC1CCC(CNS(C)(=O)=O)CN1c1cc(-c2cnc3ccc(C(F)F)nn23)ncc1F` (stereo not shown) [II-271, N-[[1-[2-[6-(Difluoromethyl)imidazo[1,2-b]pyridazin-3-yl]-5-fluoro-4-pyridyl]-6-methyl-3-piperidyl]methyl]methanesulfonamide], the 50% inhibitory concentration (IC50) in assay [1] (setting [4]) fell in the range of 500 to 5000 nM. Also, at GCN2 kinase (setting [5]), the Ki lay within 10 to 1000 nM.

Turning to `CC(=O)N1CCN(c2cc(-c3cnc4ccc(C(F)(F)F)nn34)ccn2)CC1` [II-223, 1-(4-(4-(6-(Trifluoromethyl)imidazo[1,2-b]pyridazin-3-yl)pyridin-2-yl)piperazin-1-yl)ethanone], the IC50 in assay [1] (setting [4]) was > 5000 nM. This molecule also displayed a Ki on GCN2 kinase (setting [5]) of 10 to 1000 nM.

Consider `CC1CN(c2cc(-c3cnc4ccc(C(F)F)nn34)ncn2)CC1CNS(C)(=O)=O` (stereo not shown) [II-18, N-((1-(6-(6-(Difluoromethyl)imidazo[1,2-b]pyridazin-3-yl)pyrimidin-4-yl)-4-methylpyrrolidin-3-yl)methyl)methanesulfonamide], for which the IC50 in assay [1] (setting [4]) is < 500 nM. Further, the Ki on GCN2 kinase (setting [5]) was < 10 nM.

With `CS(=O)(=O)NCC1CCCN(c2cc(-c3cnc4ccc(C(F)F)nn34)cc(N3CCNCC3)n2)C1` (stereo not shown) [II-96, N-((1-(4-(6-(Difluoromethyl)imidazo[1,2-b]pyridazin-3-yl)-6-(piperazin-1-yl)pyridin-2-yl)piperidin-3-yl)methyl)methanesulfonamide], the concentration for half-maximal inhibition (IC50) in assay [1] (setting [4]) is 500 to 5000 nM. The Ki on GCN2 kinase (setting [5]) was < 10 nM.

`Brc1cn2c(-c3nccc(N4CCCC(c5cn[nH]c5)C4)n3)cnc2cn1` (stereo not shown) [IV-346, 3-(4-(3-(1H-Pyrazol-4-yl)piperidin-1-yl)pyrimidin-2-yl)-6-bromoimidazo[1,2-a]pyrazine]: the IC50 in assay [1] (setting [2]) was < 500 nM. In addition, the Ki at GCN2 kinase (setting [3]) was < 10 nM.

Consider `O=C1CCN(c2cc(-c3cnn4ccc(C(F)(F)F)nc34)ncn2)CCN1` [III-3, 1-[6-[5-(Trifluoromethyl)pyrazolo[1,5-a]pyrimidin-3-yl]pyrimidin-4-yl]-1,4-diazepan-5-one], for which the IC50 in assay [1] (setting [6]) was > 5000 nM. This molecule also displayed a Ki on GCN2 kinase (setting [7]) of 10 to 1000 nM.

As to `CCN1CCN(c2cc(-c3cnc4ccc(C(F)F)nn34)ncn2)C(C)C1CNS(C)(=O)=O` (stereo not shown) [II-340, N-((4-(6-(6-(Difluoromethyl)imidazo[1,2-b]pyridazin-3-yl)pyrimidin-4-yl)-1-ethyl-3-methylpiperazin-2-yl)methyl)methanesulfonamide], the half-maximal inhibitory concentration (IC50) in assay [1] (setting [4]) is < 500 nM. Besides, the Ki at GCN2 kinase (setting [5]) is 10 to 1000 nM.

For `NS(=O)(=O)NCC1CN(c2cc(-c3cnc4ccc(C(F)F)nn34)ncn2)CCO1` (stereo not shown) [II-347, N-((4-(6-(6-(Difluoromethyl)imidazo[1,2-b]pyridazin-3-yl)pyrimidin-4-yl)morpholin-2-yl)methyl)sulfuric diamide], the IC50 in assay [1] (setting [4]) is < 500 nM. Moreover, the Ki on GCN2 kinase (setting [5]) was < 10 nM.

For `Cc1n[nH]c(C)c1C1CCN(c2ccnc(-c3cnc4cnc(C(F)(F)F)cn34)n2)C1` (stereo not shown) [IV-574, 3-(4-(3-(3,5-Dimethyl-1H-pyrazol-4-yl)pyrrolidin-1-yl)pyrimidin-2-yl)-6-(trifluoromethyl)imidazo[1,2-a]pyrazine], in assay [1] (setting [2]), the IC50 was > 5000 nM. This molecule also had a Ki at GCN2 kinase (setting [3]) of 10 to 100 nM.

Regarding `CN(C)C1CN(c2cc(-c3cnc4ccc(C(F)F)nn34)ncn2)CC(CNS(C)(=O)=O)C1(F)F` (stereo not shown) [II-260, N-((1-(6-(6-(Difluoromethyl)imidazo[1,2-b]pyridazin-3-yl)pyrimidin-4-yl)-5-(dimethylamino)-4,4-difluoropiperidin-3-yl)methyl)methanesulfonamide], the 50% inhibitory concentration (IC50) in assay [1] (setting [4]) is 500 to 5000 nM. For the same molecule, the Ki on GCN2 kinase (setting [5]) lay within 10 to 1000 nM.

As to `Cc1[nH]ncc1[C@@H]1CN(c2cc(-c3cnc4ccc(C(F)(F)F)nn34)ncn2)C[C@H](C)O1` [II-767, (2S,6R)-2-methyl-6-(5-methyl-1H-pyrazol-4-yl)-4-(6-(6-(trifluoromethyl)imidazo[1,2-b]pyridazin-3-yl)pyrimidin-4-yl)morpholine], the IC50 in assay [1] (setting [4]) is < 500 nM; against GCN2 kinase (setting [5]) it was 10 to 1000 nM.

Take `CN(CC1CCCN(c2cc(-c3cnc4ccc(C(F)F)nn34)ncn2)C1)S(N)(=O)=O` (stereo not shown) [II-311, 1-((1-(6-(6-(Difluoromethyl)imidazo[1,2-b]pyridazin-3-yl)pyrimidin-4-yl)piperidin-3-yl)methyl)-1-methylsulfuric diamide]: in assay [1] (setting [4]), the half-maximal inhibitory concentration (IC50) is < 500 nM. Moreover, on GCN2 kinase (setting [5]), the Ki is < 10 nM.

As for `Fc1n[nH]cc1C1CCCN(c2ccnc(-c3cnc4cnc(C(F)(F)F)cn34)n2)C1` (single isomer, unassigned) [IV-492, 3-(4-(3-(3-Fluoro-1H-pyrazol-4-yl)piperidin-1-yl)pyrimidin-2-yl)-6-(trifluoromethyl)imidazo[1,2-a]pyrazine], the IC50 in assay [1] (setting [2]) is < 500 nM. Also, at GCN2 kinase (setting [3]), the Ki is < 10 nM.

For the molecule `CP(C)(=O)C1CC(c2cn[nH]c2)CN(c2ccnc(-c3cnc4cnc(C(F)(F)F)cn34)n2)C1` (single isomer, unassigned) [IV-632, (5-(1H-Pyrazol-4-yl)-1-(2-(6-(trifluoromethyl)imidazo[1,2-a]pyrazin-3-yl)pyrimidin-4-yl)piperidin-3-yl)dimethylphosphine oxide], the IC50 in assay [1] (setting [2]) is > 5000 nM. Also, on GCN2 kinase (setting [3]), the Ki was in the range of 10 to 100 nM.

Consider `FC(F)(F)c1cn2c(-c3nccc(N4CCC(c5cn[nH]c5)C4)n3)cnc2cn1` (single isomer, unassigned) [IV-540, 3-(4-(3-(1H-Pyrazol-4-yl)pyrrolidin-1-yl)pyrimidin-2-yl)-6-(trifluoromethyl)imidazo[1,2-a]pyrazine], for which the 50% inhibitory concentration (IC50) in assay [1] (setting [2]) is 500 to 5000 nM. Also, the Ki at GCN2 kinase (setting [3]) is < 10 nM.

Regarding `CC(=O)N1CC=C(c2ccnc(-c3cnc4cnc(C(F)F)cn34)n2)CC1` [IV-156, 1-(4-(2-(6-(Difluoromethyl)imidazo[1,2-a]pyrazin-3-yl)pyrimidin-4-yl)-3,6-dihydropyridin-1(2H)-yl)ethan-1-one], the half-inhibitory concentration (IC50) in assay [1] (setting [2]) was > 5000 nM. On GCN2 kinase (setting [3]), this molecule registered a Ki of 100 to 1000 nM.

In the case of `O=C1CN(c2cc(-c3cnc4ccc(C(F)F)nn34)ccn2)CCN1` [II-62, 4-(4-(6-(Difluoromethyl)imidazo[1,2-b]pyridazin-3-yl)pyridin-2-yl)piperazin-2-one], the 50% inhibitory concentration (IC50) in assay [1] (setting [4]) is > 5000 nM. In addition, the Ki on GCN2 kinase (setting [5]) was 10 to 1000 nM.

As to `CS(=O)(=O)NC[C@@H]1CN(c2cc(-c3cnn4ccc(C(F)F)nc34)ncn2)CCO1` [III-4, N-[[(2S)-4-[6-[5-(Difluoromethyl)pyrazolo[1,5-a]pyrimidin-3-yl]pyrimidin-4-yl]morpholin-2-yl]methyl]methanesulfonamide], the IC50 in assay [1] (setting [6]) is < 500 nM. For the same molecule, at GCN2 kinase (setting [7]), the Ki is < 10 nM.

`Cc1n[nH]cc1C1=CCCN(c2ccnc(-c3cnc4cnc(C(F)F)cn34)n2)C1` [IV-96, 6-(Difluoromethyl)-3-(4-(5-(3-methyl-1H-pyrazol-4-yl)-3,6-dihydropyridin-1 (2H)-yl)pyrimidin-2-yl)imidazo[1,2-a]pyrazine] displayed an IC50 in assay [1] (setting [2]) of 500 to 5000 nM. Also, the Ki on GCN2 kinase (setting [3]) lay in the range of 10 to 100 nM.

Molecule `CC1CN(c2nccc(-c3cnc4cnc(C(F)(F)F)cn34)n2)CC(c2cn[nH]c2)O1` (single isomer, unassigned) [IV-202, 2-Methyl-6-(1H-pyrazol-4-yl)-4-(4-(6-(trifluoromethyl)imidazo[1,2-a]pyrazin-3-yl)pyrimidin-2-yl)morpholine] registered an IC50 in assay [1] (setting [2]) of 500 to 5000 nM. The Ki on GCN2 kinase (setting [3]) lay within 10 to 100 nM.

With `C[C@H]1CN(c2cc(-c3cnc4ccc(C(F)F)nn34)ncn2)C[C@@H]1CNS(C)(=O)=O` [II-237, N-(((3R,4R)-1-(6-(6-(Difluoromethyl)imidazo[1,2-b]pyridazin-3-yl)pyrimidin-4-yl)-4-methylpyrrolidin-3-yl)methyl)methanesulfonamide], in assay [1] (setting [4]), the IC50 was 500 to 5000 nM. Moreover, on GCN2 kinase (setting [5]), the Ki is < 10 nM.

Source of the values: US10988477B2 (Merck Patent GmbH, priority 2018, dated 2021).
